Tests used:
[1] = biological target: T1, Antithrombin inhibition of factor Xa (Homo sapiens, UniProt P01008); assay: Kinetics of antithrombin inhibition of factor Xa in presence of activators; assay type: biochemical; conditions: for kACT (second-order rate constant of fXa inhibition by AT–activator complex): pH 6.0, 25 mM NaCl, 25 °C, error ±1 S.E.
[2] = biological target: T1, Antithrombin inhibition of factor Xa; conditions: ref [32], cited from earlier work

T1 sequence (P01008 33-464): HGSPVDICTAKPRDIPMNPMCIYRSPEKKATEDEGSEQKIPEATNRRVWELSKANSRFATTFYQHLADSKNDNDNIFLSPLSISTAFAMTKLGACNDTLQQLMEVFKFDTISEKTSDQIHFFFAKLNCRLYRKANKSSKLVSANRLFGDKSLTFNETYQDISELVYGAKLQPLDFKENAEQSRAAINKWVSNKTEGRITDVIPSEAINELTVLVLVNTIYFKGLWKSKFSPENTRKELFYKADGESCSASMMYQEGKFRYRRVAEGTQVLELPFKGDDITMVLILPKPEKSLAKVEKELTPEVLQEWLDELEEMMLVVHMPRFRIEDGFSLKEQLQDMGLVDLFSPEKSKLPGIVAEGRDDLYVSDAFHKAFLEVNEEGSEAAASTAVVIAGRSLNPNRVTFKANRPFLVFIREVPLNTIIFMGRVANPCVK

| Compound | kACT (second-order rate constant of fXa inhibition by AT–activator complex) [1] | further results |
| --- | --- | --- |
| O=C([O-])C1Cc2cc(OS(=O)(=O)[O-])c(OS(=O)(=O)[O-])cc2CN1C(=O)Cc1cc(OS(=O)(=O)[O-])ccc1OS(=O)(=O)[O-].[Na+].[Na+].[Na+].[Na+].[Na+] (centres unmarked) [19a, Sodium 2-(2-(2,5-di-O-sulfonato-phenyl)acetyl)-6,7-di-O-sulfonato-1,2,3,4-tetrahydroisoquinoline-3-carboxylate tetrasodium] | 19740 ± 1290 M⁻¹ s⁻¹ |  |
| O=C([O-])C1Cc2cc(OS(=O)(=O)[O-])c(OS(=O)(=O)[O-])cc2CN1C(=O)CCCc1cc(OS(=O)(=O)[O-])ccc1OS(=O)(=O)[O-].[Na+].[Na+].[Na+].[Na+].[Na+] (centres unmarked) [19c, Sodium 2-(4-(2,5-di-O-sulfonato-phenyl)butanoyl)-6,7-di-O-sulfonato-1,2,3,4-tetrahydroisoquinoline-3-carboxylate tetrasodium] | 9640 ± 748 M⁻¹ s⁻¹ |  |
| O=C([O-])C1Cc2c(OS(=O)(=O)[O-])ccc(OS(=O)(=O)[O-])c2CN1C(=O)CCCc1cc(OS(=O)(=O)[O-])ccc1OS(=O)(=O)[O-].[Na+].[Na+].[Na+].[Na+].[Na+] (centres unmarked) [20c, Sodium 2-(4-(2,5-di-O-sulfonato-phenyl)butanoyl)-5,8-di-O-sulfonato-1,2,3,4-tetrahydro isoquinoline-3-carboxylate tetrasodium] | 46330 ± 2830 M⁻¹ s⁻¹ | AT activation, fold less than that achieved with DEFGH ([1]; 79-fold versus 300-fold for DEFGH): 3.8 fold |
| O=S(=O)([O-])Oc1cc2c(c(OS(=O)(=O)[O-])c1)C[C@@H](OS(=O)(=O)[O-])[C@@H](c1ccc(OS(=O)(=O)[O-])c(OS(=O)(=O)[O-])c1)O2.[Na+].[Na+].[Na+].[Na+].[Na+] [ECS] |  | kUNCAT ([2]; 20 mM sodium phosphate buffer, pH 6.0, 0.1 mM EDTA, 0.1% PEG8000): ~120 M⁻¹ s⁻¹; kACT ([2]; pH 6.0, no added NaCl): 909 ± 40 M⁻¹ s⁻¹ |
| O=C(Cc1cc(OS(=O)(=O)[O-])ccc1OS(=O)(=O)[O-])N1CCc2cc(OS(=O)(=O)[O-])c(OS(=O)(=O)[O-])cc2C1.[Na+].[Na+].[Na+].[Na+] [compound 7, 1-(6,7-di-O-sulfonato-3,4-dihydroisoquinolin-2(1H)-yl)-2-(2,5-di-O-sulfonato-phenyl) ethanone tetrasodium] | 4582 ± 597 M⁻¹ s⁻¹ |  |
| O=C(CCCc1cc(OS(=O)(=O)[O-])ccc1OS(=O)(=O)[O-])N1CCc2c(ccc(OS(=O)(=O)[O-])c2OS(=O)(=O)[O-])C1.[Na+].[Na+].[Na+].[Na+] [compound 8, 1-(5,6-di-O-sulfonato-3,4-dihydroisoquinolin-2(1H)-yl)-4-(2,5-di-O-sulfonato-phenyl)butan-1-one tetrasodium] | 3337 ± 265 M⁻¹ s⁻¹ |  |

Now from value to compound, other results behind:

| kACT (second-order rate constant of fXa inhibition by AT–activator complex) [1] | Compound | further results |
| --- | --- | --- |
| 8051 ± 751 M⁻¹ s⁻¹ | O=C([O-])C1Cc2cc(OS(=O)(=O)[O-])c(OS(=O)(=O)[O-])cc2CN1C(=O)CCc1cc(OS(=O)(=O)[O-])ccc1OS(=O)(=O)[O-].[Na+].[Na+].[Na+].[Na+].[Na+] (centres unmarked) [19b, Sodium 2-(3-(2,5-di-O-sulfonato-phenyl)propanoyl)-6,7-di-O-sulfonato-1,2,3,4-tetrahydroisoquinoline-3-carboxylate tetrasodium] |  |
| 32630 ± 1644 M⁻¹ s⁻¹ | O=C([O-])C1Cc2c(OS(=O)(=O)[O-])ccc(OS(=O)(=O)[O-])c2CN1C(=O)Cc1cc(OS(=O)(=O)[O-])ccc1OS(=O)(=O)[O-].[Na+].[Na+].[Na+].[Na+].[Na+] (centres unmarked) [20a, Sodium 2-(2-(2,5-di-O-sulfonato-phenyl)acetyl)-5,8-di-O-sulfonato-1,2,3,4-tetrahydroisoquinoline-3-carboxylate tetrasodium] |  |
| 11800 ± 789 M⁻¹ s⁻¹ | O=C([O-])C1Cc2c(OS(=O)(=O)[O-])ccc(OS(=O)(=O)[O-])c2CN1C(=O)CCc1cc(OS(=O)(=O)[O-])ccc1OS(=O)(=O)[O-].[Na+].[Na+].[Na+].[Na+].[Na+] (centres unmarked) [20b, Sodium 2-(3-(2,5-di-O-sulfonato-phenyl)propanoyl)-5,8-di-O-sulfonato-1,2,3,4-tetrahydroisoquinoline-3-carboxylate tetrasodium] |  |

From publication PMC3165067 (Journal of medicinal chemistry, 2011)
